Laboratory results reported in article PMC6154339, “Synthesis, Characterization, Antimicrobial and Antiproliferative Activity Evaluation of Cu(II), Co(II), Zn(II), Ni(II) and Pt(II) Complexes with Isoniazid-Derived Compound” (Molecules : A Journal of Synthetic Chemistry and Natural …, 2017).
≈ marks a conversion by molar mass, not a printed value. Read-outs that look alike come from different tables or passages of the source.

Columns and labels:
[1] = tested on: Escherichia coli, ATCC 25922; assay: Antibacterial activity, serial dilutions in liquid broth (MIC/MBC); assay type: cell-based; settings: E. coli (G −)
Source text: (§1) All synthesized complexes and the ligand were screened for their in vitro antibacterial activity against Gram-positive bacteria (Staphylococcus aureus), Gram-negative bacteria (Escherichia coli, Klebsiella pneumoniae) and antifungal activity (Candida albicans) strains using the paper disc diffusion technique (for the qualitative determination) and the serial dilutions in liquid broth method (for determination of MIC). Furacillinum and nystatine were used as standard drugs.
(§2) The antibacterial activity of complexes and also of their prototype furacilin has been determined under liquid nutritive environment (2% of peptonate bullion (pH 7.0)) using the successive dilutions method. Escherichia coli, Klebsiella pneumoniae, and Staphylococcus aureus stems were used as reference culture for the in vitro experiment. The dissolution of studied substances in dimethylformamide, microorganism cultivation, suspension obtaining, determination of minimal inhibition concentration (MIC) and minimal bactericide concentration (MBC) have been carried out according to the method previously reported.

[2] = tested on: Klebsiella pneumoniae, ATCC 31,488; assay: as above; assay type: cell-based; settings: K. pneumoniae (G −)
Source text: as §1, §2

[3] = tested on: Staphylococcus aureus, ATCC 25923; assay: as above; assay type: cell-based; settings: S. aureus (G +)
Source text: as §1, §2

Candida albicans = assay: Antifungal (antimycotic) activity, liquid Sabouraud medium (MIC/MBC); assay type: cell-based; settings: C. albicans
Source text: as §1
Antimycotic properties of the complexes were investigated in vitro on laboratory stem Candida albicans. The activity has been determined in a liquid Sabouraud nutritive environment (pH 6.8). The inoculates were prepared from fungi stems which were harvested over 3–7 days. Their concentration in suspension is (2–4) × 10^6 colonies form unities in milliliter. Sowings for levures and micelles were incubated at 37 °C during 7 and 14 days, respectively.

[4] = Solubility in compendial aqueous media; assay type: physicochemical; settings: 37 °C, 30 min, mean ± standard deviation, n = 3
Experimental: Solubility assessment was conducted in compendial aqueous solutions prepared according to United States Pharmacopoeia USP39/NF34): hydrochloric acid 0.1 N pH 1.2, acetate buffer pH 4.5 and phosphate buffer 6.8. These buffer systems are routinely used for screening of drug dissolution testing and they simulate the pH values of proximal gastrointestinal regions. The standard samples were prepared by diluting the stock solution of 80 µg/mL in dimethyl sulfoxide (with 0.2% pyridine, v/v) with corresponding media. The reagents were of analytical grade and used as received.
The assay was performed using a SpectraMax Plus 84 Plate reader reader (Sunnyvale, CA, USA), Molecular Devices LLC (US), equiped with SoftMax software version 6.4.2 (Sunnyvale, CA, USA). Separate plates were loaded with standard solutions in nine concentrations (0.2 to 80 µg/mL). For evaluation of the aqueous solubility, the samples were prepared in triplicate by adding 10 µL of the stock solution to the wells loaded with 190 µL of each buffer, using MultiScreen HTS plates (PCF, code MSSLBPC, Merck Millipore, Darmstadt, Germany). After 30 minutes of incubation at 37 ± 0.5 °C under agitation (250 rpm, IKA KS 4000 ic control, IKA, Staufen, Germany), the plates were filtrated under vacuum using a Vac-Man 96 Vacuum manifold (Promega Corporation, Madison, WI, USA). The solutions were collected in V-bottom polypropylene 96-well microplates (Greiner Bio-One, Kremsmünster, Austria). Volumes of 100 µL were transferred to UV-Star 96-well microplate with flat bottom (Chimney well, Grained Bio-One) and diluted by addition of 100 µL of the corresponding medium. The absorbance corresponding to each well was determined at fixed wavelengths: 280, 300, 320, 340, 360 and 800 nm. The reduced value of absorbance, calculated by the sum of the values recorded at the six wavelengths, were used for the calibration curve and subsequent determination of concentration in each solubility sample.

[5] = Qualitative solubility in organic solvents; assay type: physicochemical
[6] = tested on: MCF-7 human breast cancer cell line; assay: Alamar blue cell viability assay; assay type: cell-based; settings: 48 h treatment, 10 µM, relative to untreated control
Experimental: (§3) Compounds HL, 1, 5, 6 and 8 were dissolved in dimethyl sulfoxide (DMSO; Sigma-Aldrich, Ayrshire, UK) and stored at 2–8 °C. Compounds 2, 3, 4 and 7 were dissolved in pyridine (Fluka, Munich, Germany). A stock solution of 10 mM in the proper solvents was prepared; as for the final concentration (10 µM), successive dilution of the stock solution with culture medium was made.
(§4) The breast cancer cell lines were cultured as follow: MCF-7 human breast cancer cell line (ATCC, Rockville, MD, USA) was cultured in EMEM (Sigma Aldrich, Munich, Germany) supplemented with 10% FCS (fetal bovine serum, PromoCell, Heidelberg, Germany), 1% penicillin-streptomycin (Pen/Strep, 10,000 IU/mL; PromoCell, Heidelberg, Germany), 1% nonessential amino acids and 1% glutamine (PromoCell, Heidelberg, Germany). SKBR-3 human breast cancer cell line was cultured in McCoy’s 5a Medium Modified (Sigma Aldrich, Munich, Germany) supplemented with 10% FCS (fetal bovine serum, PromoCell, Heidelberg, Germany), 1% penicillin-streptomycin (Pen/Strep, 10,000 IU/mL; PromoCell, Heidelberg, Germany). A375 human melanoma cell line was cultured in DMEM containing 15% FCS (fetal bovine serum, PromoCell, Heidelberg, Germany) and 1% penicillin-streptomycin (Pen/Strep, 10,000 IU/mL; PromoCell, Heidelberg, Germany). Cells were maintained at an atmosphere of 5% CO2 at 37 °C. NCI-H1573 lung adenocarcinoma cell line was cultured in RPMI-1640 Medium (ATCC, Rockville, MD, USA) supplemented with 10% FCS (fetal bovine serum, PromoCell, Heidelberg, Germany), 1% penicillin-streptomycin (Pen/Strep, 10,000 IU/mL; PromoCell, Heidelberg, Germany).
(§5) All tested cell lines were seeded onto a 96-well microplate ([…]) and left overnight to attach to the bottom of the well. After 24 h, the amount of 150 μL of the tested substances dissolved into the culture medium was added and cells were incubated for 48 h. After the incubation period, a volume of 15 μL of the Alamar blue (BioSource, Camarillo, CA, USA) solution was added. After another 10 h of incubation at 37 °C, the samples were spectrophotometrically analyzed using a microplate reader. The wave lengths used were 570 nm and 600 nm, respectively. Wells with untreated cells were used as controls. The highest concentration of DMSO and pyridine (0.1%) used to prepare stock solutions was also tested, in order to identify the solvent activity. All measurements were performed in triplicate and data were presented as mean ± standard deviation.

[7] = tested on: A375 human melanoma cell line; assay: Alamar blue cell viability assay; assay type: cell-based; settings: 48 h treatment, 10 µM, relative to untreated control
Experimental: as §3, §4, §5

[8] = tested on: SKBR-3 human breast cancer cell line; assay: Alamar blue cell viability assay; assay type: cell-based; settings: 48 h treatment, 10 µM, relative to untreated control
Experimental: as §3, §4, §5

[9] = tested on: NCI-H1573 lung adenocarcinoma cell line; assay: Alamar blue cell viability assay; assay type: cell-based; settings: 48 h treatment, 10 µM, relative to untreated control
Experimental: as §3, §4, §5

[10] = Hydrochloric Acid 0.1 N (pH = 1.2)

Row | SMILES | LC50 of copper acetate relative to the perchlorate (Daphnia magna; after 24 h of exposure, printed as 'lower') | LC50 (Daphnia magna; incubation period 24 h) | LC50 (Daphnia magna; incubation period 48 h) | MBC [1] | MIC [1] | MBC [2] | MIC [2] | MBC [3] | MIC [3] | MBC (Candida albicans) | MIC (Candida albicans) | solubility in compendial media ([4]; Acetate Buffer (pH = 4.5)) | solubility in compendial media [4, 10] | solubility in compendial media ([4]; Phosphate Buffer (pH = 6.8)) | solubility in organic solvents (qualitative) [5] | Viability % [6] | Viability % [7] | Viability % [8] | Viability % [9]
1 | CC(=O)[O-].CC(=O)[O-].[Cu+2] [Cu(CH3COO)2] | about 25 fold | 9.68 µM | 0.44 µM |  |  |  |  |  |  |  |  |  |  |  |  |  |  |  | 
2 | [Cu+2].[O-][Cl+3]([O-])([O-])[O-].[O-][Cl+3]([O-])([O-])[O-] [Cu(ClO4)2] |  | 0.39 µM |  |  |  |  |  |  |  |  |  |  |  |  |  |  |  |  | 
3 | O=[N+]([O-])[O-].O=[N+]([O-])[O-].[Cu+2] [Cu(NO3)2] |  | 7.43 µM | 1.39 µM |  |  |  |  |  |  |  |  |  |  |  |  |  |  |  | 
4 | [Cl][Cu][Cl] [CuCl2] |  | 4.23 µM | 0.97 µM |  |  |  |  |  |  |  |  |  |  |  |  |  |  |  | 
5 | NC(=O)N/N=C/c1ccc([N+](=O)[O-])o1 [Furacillinum, reference compound] |  |  |  | 37.5 µg/mL (≈ 189 µM) | 18.7 µg/mL (≈ 94.4 µM) | >300 µg/mL | >300 µg/mL | 9.35 µg/mL (≈ 47.2 µM) | 9.35 µg/mL (≈ 47.2 µM) |  |  |  |  |  |  |  |  |  | 
6 | [Cl][Pt-2]([Cl])([Cl])[Cl].[K+].[K+] [K2PtCl4] |  | 27.7 µM | 5.63 µM |  |  |  |  |  |  |  |  |  |  |  |  |  |  |  | 
7 | [Cl][Ni][Cl] [NiCl2] |  | 100 µM | 16.2 µM |  |  |  |  |  |  |  |  |  |  |  |  |  |  |  | 
8 | C[C@@H]1[C@H](O)[C@@H](C)/C=C/C=C/CC/C=C/C=C/C=C/C=C/C(O[C@H]2O[C@H](C)[C@@H](O)[C@H](N)[C@@H]2O)CC2O[C@](O)(CC(O)C(O)CCC(O)CC(O)CC(O)CC(=O)O[C@H]1C)CC(O)C2C(=O)O (stereo partly drawn) [Nystatine, reference compound] |  |  |  |  |  |  |  |  |  | 80 µg/mL (≈ 86.4 µM) | 80 µg/mL (≈ 86.4 µM) |  |  |  |  |  |  |  | 
9 | [Cl-].[Cl-].[Zn+2] [ZnCl2] |  | 15.4 µM | 0.89 µM |  |  |  |  |  |  |  |  |  |  |  |  |  |  |  | 
10 | COc1cccc(C=NNC(=O)c2ccncc2)c1[O-].O.O.[Cl-].[Cu+2] [complex 1, [Cu(L)(Cl)]·2H2O] |  | 394 µM | 69.5 µM | 500 µg/mL | 500 µg/mL | 500 µg/mL | 500 µg/mL | 0.03 µg/mL | 0.015 µg/mL | 15 µg/mL | 7 µg/mL | 1.89 ± 0.20 µg/mL | 2.34 ± 0.28 µg/mL | <0.2 µg/mL | soluble in acetone, acetonitrile, DMF and DMSO, and is partially soluble in ethanol and methanol | 2.47% | 84.43% | 25.24% | 
11 | COc1cccc(C=NNC(=O)c2ccncc2)c1[O-].O.[Cu+2].[O-][Cl+3]([O-])([O-])[O-] [complex 4, [Cu(L)(ClO4)]·H2O] |  |  |  | 500 µg/mL | 250 µg/mL | 500 µg/mL | 250 µg/mL | 0.7 µg/mL | 0.7 µg/mL | 0.7 µg/mL | 0.7 µg/mL | 1.67 ± 0.28 µg/mL | 0.82 ± 0.6 µg/mL | <0.2 µg/mL | soluble in pyridine and is partially soluble in ethanol, methanol, acetonitrile, acetone, DMF and DMSO | 3.43% | 0.70% | 48.72% | 10.05%
12 | COc1cccc(C=NNC(=O)c2ccncc2)c1[O-].COc1cccc(C=NNC(=O)c2ccncc2)c1[O-].[Zn+2] [complex 6, [Zn(L)2]] |  |  |  | 250 µg/mL | 125 µg/mL | 250 µg/mL | 250 µg/mL | 125 µg/mL | 63 µg/mL | 125 µg/mL | 125 µg/mL | 1.56 ± 0.82 µg/mL | 1.65 ± 0.06 µg/mL | <0.2 µg/mL | soluble in pyridine, DMF and DMSO, and is partially soluble in ethanol, methanol, acetonitrile, acetone | 17.72% | 71.66% | 61.43% | 33.77%
13 | COc1cccc(C=NNC(=O)c2ccncc2)c1[O-].[Cl-].[Ni+2] [complex 7, [Ni(L)(Cl)]] |  | 351 µM | 210 µM | 500 µg/mL | 500 µg/mL | 500 µg/mL | 500 µg/mL | 0.7 µg/mL | 0.7 µg/mL | 125 µg/mL | 125 µg/mL | 1.91 ± 0.26 µg/mL | 2.26 ± 0.44 µg/mL | <0.2 µg/mL | soluble in methanol, pyridine, DMF and DMSO, and is partially soluble in acetonitrile, acetone | 47.75% | 98.97% | 21.11% | 
14 | COc1cccc(C=NNC(=O)c2ccncc2)c1[O-].[Cl-].[Pt+2] [complex 8, [Pt(L)(Cl)]] |  | 469 µM | 78.2 µM | 250 µg/mL | 125 µg/mL | 500 µg/mL | 250 µg/mL | 0.7 µg/mL | 0.7 µg/mL | 63 µg/mL | 63 µg/mL | 2.49 ± 0.09 µg/mL | 1.33 ± 0.05 µg/mL | <0.2 µg/mL | soluble in DMF and DMSO, and is partially soluble in ethanol, methanol, acetonitrile, acetone | 21.71% | 73.45% |  | 20.34%
